# According to a melting point compilation (Tetko et al.; mined from patent text by program, amines drawn as free bases though some values may be those of a salt):
row,Compound,melting point
1,CCCn1c(=O)c2c(nc(C=Cc3cc(OC)c(OC)cc3S(=O)(=O)O)n2C)n(CCC)c1=O,192 to 194 °C
2,O=C(C=Cc1ccc(F)cc1)C1CCCCC1,44 to 46 °C
3,O=[N+]([O-])c1ccc(-c2c[nH]c(Cl)n2)cc1,136 to 138 °C
4,CCNC(=O)c1ccccc1Nc1nc(Nc2cc3c(cc2OC)CC(=O)NCC3)ncc1Cl,> 250 °C
5,Cc1ccc(-c2ccc(OC3SCC(O)C(O)C3O)cn2)o1 (centres undefined),168 °C
6,O=C(Nc1ccc(C(F)(F)F)cc1)N1CC(c2ncc(Cl)s2)C(c2ccc(F)cc2)=N1 (centres undefined),188 to 189 °C
7,Cc1oc(-c2cc3ccccc3o2)nc1COc1ccc(CCCC2OC(=O)NC2=O)cc1 (centres undefined),165 to 166 °C
8,COc1cc(-c2ccc(Br)cc2)oc1-c1ccc(Br)cc1,112 to 113 °C
9,N#Cc1cn(CC(O)CCl)nc1[N+](=O)[O-] (centres undefined),78 to 80 °C
10,O=C(NCCN1CCN=C1c1ccccn1)Nc1ccc(C(=O)O)cc1,220 to 223 °C
11,Cn1c(=O)c(-c2ccc(Cl)cc2Cl)cc2c3cc(-c4nc(NS(C)(=O)=O)no4)ccc3n(C)c21,263 to 266 °C
12,COc1ccc(C(=O)NCCc2ccc(-c3ccc(O)cc3)cc2)c(OC)c1,190 °C
13,C#CCOc1cc(F)ccc1[N+](=O)[O-],38 to 39 °C
14,CC(=CCO)c1ccc(-c2ccccc2)cc1,112 to 114 °C
15,C[C@@H](CS(=O)C(F)(F)C(F)F)[C@](O)(Cn1cncn1)c1ccc(Cl)cc1Cl (some centres undefined),153 to 155 °C
16,O=S1(=O)N=C(NOCc2ccccc2)Nc2ccc(Cl)cc21,> 220 °C
17,Cn1c2ccc(Cl)cc2c2c3ccccc3c(OCCN3CCOCC3)nc21,140 to 142 °C
18,Cc1cc(C)c2cccc(OCc3c(Cl)ccc(S(=O)(=O)N4CC(O)CC4C(=O)O)c3Cl)c2n1 (centres undefined),> 260 °C
19,CC(=O)NC1CCC(=O)C(=CN(C)C)C1 (centres undefined),132 to 133 °C
20,COc1cc(C)c(C(=O)c2c(C(F)(F)F)cc(Cl)nc2Cl)c(OC)c1OC,81 to 83 °C
21,CCCC1=C(C(=O)OCC)C(c2ccccc2C#N)c2c[nH]nc2N1 (centres undefined),211 °C
22,OC1(c2cc3ccccc3s2)CCN(CCC2COc3ccccc3O2)CC1 (centres undefined),175 to 178 °C
23,CC(=O)NCC(C)(C)c1ccc(C(=O)Nc2cn3cc(-n4ccnc4)ccc3n2)cc1,242 to 244 °C
24,N#Cc1ccc(-c2cn(-c3ccc(C#N)cc3)c(SCc3ccccc3)n2)cc1,168 to 172 °C

row,Compound,melting point
1,N#Cc1cn(C2CC(O)C(CO)O2)c(=O)[nH]c1=O (centres undefined),161 °C
2,CC1=Nc2ccccc2CC(c2cccnc2)N1C (centres undefined),145 to 148 °C
3,Cc1ccc(N(C)S(=O)(=O)c2cccs2)c2[nH]c(-c3ncc(CN4CCC(O)C4)s3)cc12 (centres undefined),190 to 191 °C
4,Cc1c(C(=O)O)ncn1Cc1ccc2oc(-c3ccccc3-c3nnn[nH]3)c(Br)c2c1,248 °C
5,CC1(C)CCC(C)(C)c2cc(-c3cc(-c4ccc(C(N)=O)cc4-c4ccc(O)cc4)ccc3-c3ccccc3)ccc21,231 °C
6,CCN1C(=O)C(C)(C)C(=O)N(C)c2cc(CN(CCn3ccc4sccc4c3=O)Cc3cnccc3C)ccc21,145 to 147 °C
7,COC(=O)C(=COC(F)F)c1ccccc1CBr,63 to 67 °C
8,Cc1c(NC(=O)c2ccc(-c3ccccc3)cc2)ccc2cc(CN3CCCC3)cnc12,184 to 186 °C
9,CC(=Cc1ccc(F)cc1)c1ccc2c(c1)C(C)(C)CCC2(C)C,99 to 101 °C
10,CC(C)[Si](Oc1ccc2c(=O)c(N3CCC(O)(c4ccccc4)CC3)coc2c1)(C(C)C)C(C)C,163 to 164 °C
11,Nc1ncnc2c1c(-c1cc(O)cc(F)c1)nn2Cc1oc2ccccc2c(=O)c1-c1ccccc1,260 to 262 °C
12,Cc1cc(-c2cccc(C3=Nc4cc(O)c(-c5ccccc5F)cc4NC(=O)C3)c2)on1,237 °C
13,CCOC(C)OC1CCC2(C)C3=C(CCC2C1(C)C)C1=CCC(C(C)OCc2ccccc2)C1(C)CC3 (centres undefined),138 to 143 °C
14,COc1cc(C2CCCCC2)ccc1C(O)CCC(=O)O (centres undefined),105 to 106 °C
15,CCCNC(=O)C(C)(C)Cc1ccc2c(c1)c(Cc1ccc(C(=O)NS(=O)(=O)c3ccccc3C)cc1OC)cn2CCC,102 to 112 °C
16,CCC(=O)N(C)c1cccc(-c2nc(=O)c3ccccc3s2)n1,201 °C
17,O=C(Nc1ccc(-n2nc(C(F)(F)F)cc2C(F)(F)F)cc1)C1CC=CCC1 (centres undefined),177 to 178 °C
18,COc1ccc(Cl)cc1C(CC(=O)O)c1ccccc1 (centres undefined),144 °C
19,O=C(CCCCl)Nc1nnc(-c2ccccc2)s1,159 to 162 °C
20,CN1CCC(N(C)C(=O)c2ccc3nonc3c2)CC1,> 260 °C
21,CCOC(=O)c1cn(C2COC2)c2c(F)c(F)cc(F)c2c1=O,169 to 171 °C
22,O=S(=O)(C#Cc1ccccc1)c1ccccc1,73 °C
23,CCC1Cc2cc(OCC(=O)OC)c(Cl)c(Cl)c2C1=O (centres undefined),134 to 137 °C
24,COc1cc(CNC(=O)c2ccc3n2Cc2ccccc2N(C(=O)CSc2ccc(Br)cc2)C3)ccc1O,168 °C

row,Compound,melting point
1,COc1ccc(NC(=O)N2CCN(CCc3ccc(-c4cccc(N)n4)cc3)CC2)cc1,182 to 184 °C
2,O=S(=O)(c1ccc(F)cc1)N1CCC(Nc2nc(OCC(F)(F)F)nc(-c3ccc(F)cc3)n2)CC1,183 to 185 °C
3,CCOc1ccc(-c2cncn2-c2ccc(S(=O)(=O)NC(C)(C)C)cc2)cc1,215 °C
4,Cc1cc(C)c(C=O)c(O)c1C,74 to 75.5 °C
5,Oc1cnccc1CCCOc1cccnc1Oc1cc(Cl)cc(Cl)c1,99 to 101 °C
6,CC(=O)Oc1nc2c(N)ncnc2n1Cc1ccccc1,189 to 191 °C
7,C#CCOC(=O)C1C(C)=NC(N2CCCCC2)=C(C(=O)OCC)C1c1cccc([N+](=O)[O-])c1 (centres undefined),121 °C
8,CC(=O)OC/C(=C(\C(=O)N(C)CC(C)(C)SN=O)c1ccc(F)cc1)c1ccc(S(C)(=O)=O)cc1,37 to 38 °C
9,CCC(=O)Oc1c(OC)cc(C=CC(=O)Nc2cnc3c(C)cc(C)cc3c2-c2ccccc2Cl)cc1OC,235 to 236 °C
10,COc1ccc(CCN2CCc3cc(OC[C@H]4CO[C@](Cn5ccnc5)(c5ccc(Cl)cc5Cl)O4)ccc3C2)cc1 (racemic),121 to 122 °C
11,COc1cc(CN2CCN(c3ccc(C(=O)NC4CC4)cc3Cl)CC2)cc2c1OC(C)C(=O)N2 (centres undefined),226 °C
12,CCNCC1Cc2cc(F)cc(-c3c(Cl)cccc3Cl)c2O1 (centres undefined),138 °C
13,COCCCNC(=O)c1ccc(C(=O)N2CCN(c3ncccc3NCC(C)C)CC2)nc1,109 to 110 °C
14,c1csc(-c2nc3ccccc3nc2OC2CCC2)c1,103 °C
15,CON=C(c1ccc2c(c1)sc(=O)n2CCOc1ccc(CC(OCC(F)(F)F)C(=O)O)cc1)C1CC1 (centres undefined),33 to 34 °C
16,CCOC(=O)c1cccc(CNC(=O)CCCCCNC(=O)OC(C)(C)C)c1O,120 to 121 °C
17,CC(C)(O)c1ccc(-c2ccc(=O)n(Cc3ccc(Cl)cc3)c2)cc1,157 °C
18,CCC(CC)c1ccc(CN2CCCC2)c2nc(Oc3c(C)cc(Cl)cc3Cl)n(C)c12,107 to 108 °C
19,CC(=O)NS(=O)(=O)c1cc(C(=O)O)cc([N+](=O)[O-])c1Oc1ccccc1,270 to 271 °C
20,COC(=O)CCCc1cc2cc(Cl)ccc2n1S(=O)(=O)c1cc(C)cc(C)c1,140 to 143 °C
21,CS(=O)(=O)c1ccc(CCNC(=O)C(N)=O)cc1OC1CCCC1,185 to 186 °C
22,O=CNC1Cc2ccc([N+](=O)[O-])cc2C1 (centres undefined),91 to 92 °C
23,CCOC(=O)COc1cc(-n2ncc(=O)n(C)c2=O)c(Cl)cc1Cl,115 to 117 °C
24,Cc1c(NC(=O)OCCCl)cc([N+](=O)[O-])c(N)c1C,151 °C

row,Compound,melting point
1,O=C(O)C(Cc1ccc(OCCn2c(=O)sc3cc(C(=NO)C4CC4)ccc32)cc1)OCC(F)(F)F (centres undefined),88 to 90 °C
2,CC(CCCO)C1CCC2C3CCC4CC(O)CCC4(C)C3CC(O)C12C (centres undefined),110 to 116 °C
3,CCOCCNc1nc(Cl)nc(N[C@@H](C)c2ccccc2)n1,103 °C
4,c1ccc(-c2nc(COc3cccc(Cc4nnn[nH]4)c3)cs2)cc1,160 to 161 °C
5,COC(=O)c1[nH]c(SCc2ccccn2)nc1CCNC(=O)[C@H](Cc1ccccc1)NC(=O)N(Cc1ccccc1)NC(=O)C(C)(C)C,171 to 172 °C
6,O=C1c2ccccc2C(=O)N1CCCN1CCC(=C(c2ccccc2)c2ccccc2)CC1,108 to 110 °C
7,Cc1cc(C)cc(-c2cc(O)c(Sc3ccccc3)c(=O)o2)c1,210 to 211 °C
8,O=C(O)Cc1ccc(OCCNC(=O)C2Cc3ccccc3N2S(=O)(=O)c2ccc(-c3cccc(C(F)(F)F)c3)cc2)cc1 (centres undefined),92 °C
9,NS(=O)(=O)c1ccc(NC(=O)CNc2ccccc2)c(Cl)c1,185 to 186 °C
10,Cc1cccc(-c2[nH]c(C(C)C)nc2-c2cccc(-c3ccc4c(c3)C(=O)CCS4(=O)=O)c2)n1,115 to 119 °C
11,CC(C)c1c(Sc2ccc(O)cc2)n(C)c2ccccc12,89 to 90 °C
12,COC(=O)C1CCC2C3CCC4CC(O)C(OC)CC4(C)C3C(N)CC12C (centres undefined),177 to 184 °C
13,COc1cc(/C=C/C(=O)Oc2ccc(NC(C)=O)cc2)ccc1OC(C)=O,246 to 250 °C
14,COC(=O)C(CS)NC(=O)C(=O)NCCS (centres undefined),112 °C
15,Cc1ccc([C@@H](O)C(F)(F)F)cc1,44.2 °C
16,O=C(O)COc1ccc2c(c1)CC(NS(=O)(=O)c1ccc(Cl)cc1)C2 (centres undefined),170 to 172 °C
17,N#CC(c1ccccc1)(c1ccccc1)C1CCN(C(=O)Oc2ccccc2)C1 (centres undefined),154 to 155 °C
18,CCc1cc(N)ccc1N1C(=O)c2ccc(Cl)cc2C1=O,118 to 120 °C
19,Cc1nnc(-c2ccc3scc(-c4ccc(S(C)(=O)=O)cc4)c3c2)o1,231 to 232 °C
20,CC(C)(C)c1csc(NC(=O)c2ccn3c(=O)c(/C=C/C(=O)O)c(N4CCC(O)CC4)nc3c2)n1,215 to 218 °C
21,CCn1c(=O)ccn(-c2ccc(N)cc2)c1=O,191 °C
22,C=C(C)OC(=O)N1C(=O)[C@H](C)Nc2cc(Cl)ccc21,158 to 159 °C
